Our source for the EC50 values is patent US9732367B2, “Cell lines” (MEDIMMUNE LIMITED, priority 2012, dated 2017).

SMILES strings stand for the structures. Square brackets hold non-standard residues; d marks the D form. Peptide text beside a SMILES is read from it. * marks the point of attachment. Dolaproine = CO[C@@H]([C@@H]1CCCN1)[C@@H](C)C(=O)O; Dil = CC[C@H](C)[C@H](NC)[C@@H](CC(=O)O)OC; NMe2Val = CC(C)[C@@H](C(=O)*)N(C)C

Assay [1] concerns SKOV3. In words: In vitro cytotoxicity assay, SKOV3. The class given is cell-based, human. The procedure: (§1) The ADC's generated as described above were tested for cytotoxic activity in SKOV3 and HCC1954 and PC3 tumor cell lines which are standard target cells for testing the activity of anti Her2 antibodies and ADC cell lines. SKOV3 and HCC1954 express high levels of Her2, while PC3 expresses Her2 at low level: the cytotoxic activity was calculated as the concentration of ADC to kill 50% of the tumor cells in vitro as described in Table 5.
(§2) The Her2 over expressing cell lines, SKBR3 and SKOV3 were compared to PC3, a cell line that expresses very low level of Her2.
(§3) The ADC's generated as described above were tested for cytotoxic activity in SKOV3 and a PC3 tumor cell lines which are standard target cells for testing the activity of anti Her2 antibodies and ADC cell lines. SKOV3 cells express high levels of Her2, while PC3 cells express Her2 at low level. […] The drug treated cells are incubated at 37 C for 3 days in 100 ul medium. 20 ul of Alamar Blue (Life Technologies) is added to each well and the cells incubated for 16-24 hours and an OD 450 nm determined for each well. The cytotoxic activity of the conjugates was calculated as the concentration of ADC to kill 50% of the tumor cells in vitro as described in Table 8.

The subject of assay [2] is HCC1954. In words: In vitro cytotoxicity assay, HCC1954. It is filed as cell-based. As to the method:
as §1, §3

Assay [3] deals with SKBR3. The experiment in a line: In vitro cytotoxicity assay, SKBR3. The class given is cell-based. The procedure: as §2, §3
Assay [4] concerns BT474. The experiment in a line: In vitro cytotoxicity assay, BT474. The conditions noted are these: Table 8, 3 days, Alamar Blue. It is filed as cell-based. In general terms: Resazurin is reduced to fluorescent resorufin, in cell work by metabolically active cells.
Setting [5] is: Table 5, positional 4D5-AF ADCs.

As usually defined, the EC50 is the midpoint of the concentration-response curve. Read a high EC50 as a less potent agent. Take `CC[C@H](C)[C@@H]([C@@H](CC(=O)N1CCC[C@H]1[C@H](OC)[C@@H](C)C(=O)N[C@@H](Cc1ccccc1)C(=O)O)OC)N(C)C(=O)[C@@H](NC(=O)[C@H](C(C)C)N(C)C)C(C)C` [AF, Auristatin F] (NMe2Val-V[Dil][Dolaproine]F-OH): the EC50 in assay [1] (setting [5]) amounted to 69.4 nM; in assay [1] (Table 6) it was 287 nM; in assay [1] (Table 8, 3 days, Alamar Blue) it was 23.5 nM; in assay [2] (setting [5]) it was 18.8 nM; in assay [2] (Table 8, 3 days, Alamar Blue), 12.9 nM; in assay [3] (Table 6) it was 71 nM. For the same molecule, the EC50 in assay [3] (Table 8, 3 days, Alamar Blue) was 33.3 nM; in assay [4] it was 58.8 nM.
